Laboratory results reported in PMC6199744, “Development of Chemical Proteomics for the Folateome and Analysis of the Kinetoplastid Folateome” (ACS Infectious Diseases, 2018).
Where two headings read alike, the source gives them in different places.

Assays:
Type in all cases: binding
[1] = target: T1, HeLa cell extract proteins (Homo sapiens, UniProt O43324)
T1 construct: endogenous in cells; host or cells: HeLa cell extract
T1 sequence (O43324 1-174): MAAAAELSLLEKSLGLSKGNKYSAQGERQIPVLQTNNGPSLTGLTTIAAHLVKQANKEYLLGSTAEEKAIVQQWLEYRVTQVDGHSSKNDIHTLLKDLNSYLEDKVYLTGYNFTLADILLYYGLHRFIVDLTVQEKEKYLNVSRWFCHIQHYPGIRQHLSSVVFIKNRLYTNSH

[2] = target: T2, HeLa cell extract proteins (Homo sapiens, UniProt O95456)
T2 construct: endogenous in cells; host or cells: HeLa cell extract
T2 sequence (O95456 1-288): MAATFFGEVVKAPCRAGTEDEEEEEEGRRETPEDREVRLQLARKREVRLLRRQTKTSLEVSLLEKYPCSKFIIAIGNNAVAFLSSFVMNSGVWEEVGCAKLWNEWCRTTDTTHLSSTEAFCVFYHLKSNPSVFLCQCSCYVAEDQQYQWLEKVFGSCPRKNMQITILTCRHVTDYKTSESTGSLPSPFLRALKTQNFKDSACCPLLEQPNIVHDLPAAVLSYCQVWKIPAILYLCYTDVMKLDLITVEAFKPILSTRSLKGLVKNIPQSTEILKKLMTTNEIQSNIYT

[3] = target: T3, HeLa cell extract proteins (Homo sapiens, UniProt P04792)
T3 construct: endogenous in cells; host or cells: HeLa cell extract

[4] = target: T4, HeLa cell extract proteins (Homo sapiens, UniProt P06454)
T4 construct: endogenous in cells; host or cells: HeLa cell extract
T4 sequence (P06454 1-111): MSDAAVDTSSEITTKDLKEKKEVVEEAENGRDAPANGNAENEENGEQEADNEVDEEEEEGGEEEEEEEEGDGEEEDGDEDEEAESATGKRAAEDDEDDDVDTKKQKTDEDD

[5] = target: T5, HeLa cell extract proteins (Homo sapiens, UniProt P08758)
T5 construct: endogenous in cells; host or cells: HeLa cell extract
T5 sequence (P08758 1-320): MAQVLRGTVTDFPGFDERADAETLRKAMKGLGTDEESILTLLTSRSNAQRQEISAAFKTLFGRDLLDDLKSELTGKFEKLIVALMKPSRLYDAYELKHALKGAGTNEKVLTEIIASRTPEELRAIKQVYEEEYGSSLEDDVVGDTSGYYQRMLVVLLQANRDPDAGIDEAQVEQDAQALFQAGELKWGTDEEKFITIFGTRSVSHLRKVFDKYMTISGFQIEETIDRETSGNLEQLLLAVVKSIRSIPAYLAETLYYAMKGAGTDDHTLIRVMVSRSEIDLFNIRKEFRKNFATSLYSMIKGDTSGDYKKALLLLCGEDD

[6] = target: T6, HeLa cell extract proteins (Homo sapiens, UniProt P11021)
T6 construct: endogenous in cells; host or cells: HeLa cell extract

[7] = target: T7, HeLa cell extract proteins (Homo sapiens, UniProt P55735)
T7 construct: endogenous in cells; host or cells: HeLa cell extract
T7 sequence (P55735 1-322): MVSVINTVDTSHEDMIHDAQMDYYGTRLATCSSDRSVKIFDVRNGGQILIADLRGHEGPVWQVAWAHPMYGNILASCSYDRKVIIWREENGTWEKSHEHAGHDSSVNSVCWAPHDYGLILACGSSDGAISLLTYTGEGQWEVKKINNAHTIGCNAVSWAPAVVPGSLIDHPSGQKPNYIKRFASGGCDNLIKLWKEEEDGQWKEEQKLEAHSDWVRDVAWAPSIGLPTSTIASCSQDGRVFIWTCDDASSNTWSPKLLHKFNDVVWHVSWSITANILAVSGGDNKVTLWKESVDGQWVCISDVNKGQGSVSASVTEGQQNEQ

[8] = target: T8, HeLa cell extract proteins (Homo sapiens, UniProt P78527)
T8 construct: endogenous in cells; host or cells: HeLa cell extract

[9] = target: T9, HeLa cell extract proteins (Homo sapiens, UniProt Q15046)
T9 construct: endogenous in cells; host or cells: HeLa cell extract

[10] = target: T10, HeLa cell extract proteins (Homo sapiens, UniProt Q7Z3U7)
T10 construct: endogenous in cells; host or cells: HeLa cell extract

[11] = target: T11, HeLa cell extract proteins (Homo sapiens, UniProt Q8TEX9)
T11 construct: endogenous in cells; host or cells: HeLa cell extract
T11 sequence (Q8TEX9 1-1081): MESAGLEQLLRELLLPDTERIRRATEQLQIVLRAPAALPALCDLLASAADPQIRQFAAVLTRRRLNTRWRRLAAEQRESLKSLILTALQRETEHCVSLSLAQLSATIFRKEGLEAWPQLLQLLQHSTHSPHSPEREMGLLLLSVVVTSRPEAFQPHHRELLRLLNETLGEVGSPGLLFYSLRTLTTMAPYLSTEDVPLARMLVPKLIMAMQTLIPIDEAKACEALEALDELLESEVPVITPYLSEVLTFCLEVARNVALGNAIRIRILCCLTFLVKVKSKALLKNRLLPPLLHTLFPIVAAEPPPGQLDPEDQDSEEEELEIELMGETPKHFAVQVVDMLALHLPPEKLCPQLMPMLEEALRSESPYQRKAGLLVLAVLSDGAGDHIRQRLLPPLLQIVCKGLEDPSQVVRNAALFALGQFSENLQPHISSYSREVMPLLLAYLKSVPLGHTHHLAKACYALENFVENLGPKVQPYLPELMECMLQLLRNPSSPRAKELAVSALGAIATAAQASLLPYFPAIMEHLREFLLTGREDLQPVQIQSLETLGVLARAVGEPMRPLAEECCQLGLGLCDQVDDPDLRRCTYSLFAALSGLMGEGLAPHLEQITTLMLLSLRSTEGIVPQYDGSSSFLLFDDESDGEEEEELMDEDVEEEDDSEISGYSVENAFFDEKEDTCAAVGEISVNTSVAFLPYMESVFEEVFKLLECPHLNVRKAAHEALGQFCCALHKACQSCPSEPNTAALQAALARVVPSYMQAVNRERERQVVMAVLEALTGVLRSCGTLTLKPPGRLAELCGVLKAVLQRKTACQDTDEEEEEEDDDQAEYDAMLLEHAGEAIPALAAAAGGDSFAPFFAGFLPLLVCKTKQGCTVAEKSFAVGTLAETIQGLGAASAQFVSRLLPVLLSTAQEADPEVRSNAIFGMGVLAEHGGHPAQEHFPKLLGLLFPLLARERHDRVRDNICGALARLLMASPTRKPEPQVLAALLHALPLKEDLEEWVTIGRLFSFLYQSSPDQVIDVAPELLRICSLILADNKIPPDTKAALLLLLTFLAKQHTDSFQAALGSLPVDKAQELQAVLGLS

[12] = HeLa, protein EEF1E1 (EUKARYOTIC TRANSLATION ELONGATION FACTOR 1 EPSILON-1)
[13] = HeLa, protein PRKDC (ISOFORM 1 OF DNA-DEPENDENT PROTEIN KINASE CATALYTIC SUBUNIT)
[14] = HeLa, protein PTMA (15 KDA PROTEIN.)
[15] = HeLa, protein ANXA5 (ANNEXIN A5.)

T10 sequence (Q7Z3U7 whole entry): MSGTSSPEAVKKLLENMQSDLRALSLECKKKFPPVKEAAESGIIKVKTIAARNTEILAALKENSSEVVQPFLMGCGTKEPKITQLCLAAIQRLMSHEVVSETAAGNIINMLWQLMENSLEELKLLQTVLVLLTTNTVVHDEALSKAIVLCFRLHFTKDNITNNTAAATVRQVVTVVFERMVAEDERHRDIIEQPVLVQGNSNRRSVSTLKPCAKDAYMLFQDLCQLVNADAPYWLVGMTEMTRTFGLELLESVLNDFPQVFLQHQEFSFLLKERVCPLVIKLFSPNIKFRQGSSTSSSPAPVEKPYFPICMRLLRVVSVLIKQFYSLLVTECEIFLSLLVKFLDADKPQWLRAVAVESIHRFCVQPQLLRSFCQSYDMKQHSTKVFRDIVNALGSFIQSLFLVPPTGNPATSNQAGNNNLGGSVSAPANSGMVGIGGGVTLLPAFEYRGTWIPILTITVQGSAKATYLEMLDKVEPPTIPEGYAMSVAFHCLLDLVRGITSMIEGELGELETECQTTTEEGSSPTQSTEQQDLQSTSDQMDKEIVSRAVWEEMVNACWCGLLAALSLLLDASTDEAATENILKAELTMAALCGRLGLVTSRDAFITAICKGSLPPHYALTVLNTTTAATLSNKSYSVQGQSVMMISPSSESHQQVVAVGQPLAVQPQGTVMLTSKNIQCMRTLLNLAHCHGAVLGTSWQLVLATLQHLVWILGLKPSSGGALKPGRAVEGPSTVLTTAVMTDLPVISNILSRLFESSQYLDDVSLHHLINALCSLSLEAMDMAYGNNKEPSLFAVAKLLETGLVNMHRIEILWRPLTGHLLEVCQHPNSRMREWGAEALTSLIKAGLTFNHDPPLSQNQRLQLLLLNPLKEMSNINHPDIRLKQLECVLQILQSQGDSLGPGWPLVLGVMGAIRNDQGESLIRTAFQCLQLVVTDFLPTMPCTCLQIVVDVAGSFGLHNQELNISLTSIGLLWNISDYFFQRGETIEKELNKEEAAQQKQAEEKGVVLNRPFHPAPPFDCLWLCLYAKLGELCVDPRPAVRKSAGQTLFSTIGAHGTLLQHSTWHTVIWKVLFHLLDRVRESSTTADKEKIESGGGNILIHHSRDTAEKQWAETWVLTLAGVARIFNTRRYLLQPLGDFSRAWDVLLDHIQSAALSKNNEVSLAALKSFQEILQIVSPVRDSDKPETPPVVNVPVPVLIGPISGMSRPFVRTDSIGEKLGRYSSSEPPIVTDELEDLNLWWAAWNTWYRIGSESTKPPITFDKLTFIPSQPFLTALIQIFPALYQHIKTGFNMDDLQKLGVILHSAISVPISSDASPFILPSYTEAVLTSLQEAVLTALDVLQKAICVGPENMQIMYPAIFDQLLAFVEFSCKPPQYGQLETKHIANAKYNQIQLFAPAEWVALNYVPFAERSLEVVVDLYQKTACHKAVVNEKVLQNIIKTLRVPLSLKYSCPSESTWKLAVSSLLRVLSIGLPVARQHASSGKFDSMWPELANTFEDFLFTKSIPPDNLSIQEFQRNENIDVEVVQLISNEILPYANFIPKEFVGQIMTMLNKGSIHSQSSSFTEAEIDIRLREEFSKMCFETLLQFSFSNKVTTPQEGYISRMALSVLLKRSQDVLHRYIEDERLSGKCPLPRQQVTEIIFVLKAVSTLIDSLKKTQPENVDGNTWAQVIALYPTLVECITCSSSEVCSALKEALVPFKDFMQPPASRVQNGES
T3 sequence (P04792 whole entry): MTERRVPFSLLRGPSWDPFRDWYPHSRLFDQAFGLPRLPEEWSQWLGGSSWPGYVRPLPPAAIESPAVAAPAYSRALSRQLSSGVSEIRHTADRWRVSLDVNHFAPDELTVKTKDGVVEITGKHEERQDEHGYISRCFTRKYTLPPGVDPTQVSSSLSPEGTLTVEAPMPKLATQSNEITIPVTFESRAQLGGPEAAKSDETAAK
T9 sequence (Q15046 whole entry): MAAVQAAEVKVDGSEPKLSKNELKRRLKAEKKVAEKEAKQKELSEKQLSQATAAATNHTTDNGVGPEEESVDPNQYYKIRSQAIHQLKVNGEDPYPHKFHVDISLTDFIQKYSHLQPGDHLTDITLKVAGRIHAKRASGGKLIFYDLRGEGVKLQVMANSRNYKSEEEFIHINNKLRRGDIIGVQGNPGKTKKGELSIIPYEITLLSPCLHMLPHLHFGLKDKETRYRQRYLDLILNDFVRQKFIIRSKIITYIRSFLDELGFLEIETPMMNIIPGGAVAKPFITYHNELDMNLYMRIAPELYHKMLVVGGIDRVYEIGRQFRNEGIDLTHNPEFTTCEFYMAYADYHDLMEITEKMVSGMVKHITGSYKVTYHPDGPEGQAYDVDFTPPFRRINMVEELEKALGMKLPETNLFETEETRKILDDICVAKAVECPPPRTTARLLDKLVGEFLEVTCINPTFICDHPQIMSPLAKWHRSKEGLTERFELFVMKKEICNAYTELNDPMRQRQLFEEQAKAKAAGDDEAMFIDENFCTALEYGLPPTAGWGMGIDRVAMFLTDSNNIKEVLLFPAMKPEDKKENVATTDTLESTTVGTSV
T6 sequence (P11021 19-654): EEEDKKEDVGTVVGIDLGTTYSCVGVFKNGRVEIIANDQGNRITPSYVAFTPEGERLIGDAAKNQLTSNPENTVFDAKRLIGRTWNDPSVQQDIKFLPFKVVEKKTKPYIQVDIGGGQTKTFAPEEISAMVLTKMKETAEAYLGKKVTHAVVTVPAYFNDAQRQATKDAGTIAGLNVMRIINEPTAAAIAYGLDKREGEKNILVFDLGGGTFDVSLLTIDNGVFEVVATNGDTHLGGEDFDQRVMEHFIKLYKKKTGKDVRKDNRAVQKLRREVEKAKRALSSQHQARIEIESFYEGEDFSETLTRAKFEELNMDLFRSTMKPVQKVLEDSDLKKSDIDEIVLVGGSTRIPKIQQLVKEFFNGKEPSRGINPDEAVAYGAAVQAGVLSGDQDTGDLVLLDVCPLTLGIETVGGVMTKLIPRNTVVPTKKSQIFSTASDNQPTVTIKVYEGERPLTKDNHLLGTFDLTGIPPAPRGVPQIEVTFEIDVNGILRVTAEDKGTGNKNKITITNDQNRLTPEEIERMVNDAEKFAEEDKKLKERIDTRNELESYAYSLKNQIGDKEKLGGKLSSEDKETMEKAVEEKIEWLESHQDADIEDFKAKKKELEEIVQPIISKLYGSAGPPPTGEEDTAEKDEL

| SMILES | fold changes relative to vehicle control ([2]; HeLa, captured protein PSMG1) | fold changes relative to vehicle control ([3]; HeLa, protein HSPB1) | fold changes relative to vehicle control ([4]; protein PTMA, HeLa) | fold changes relative to vehicle control ([5]; HeLa, protein ANXA5) | fold changes relative to vehicle control ([6]; HeLa, captured protein HSPA5) | fold changes relative to vehicle control ([7]; HeLa, captured protein SEC13) | fold changes relative to vehicle control [8, 13] | fold changes relative to vehicle control ([9]; HeLa, captured protein KARS) | fold changes relative to vehicle control ([10]; HeLa, captured protein MON2) | fold changes relative to vehicle control ([11]; protein IPO4, HeLa) | fold changes relative to vehicle control ([1]; protein EEF1E1, HeLa) | fold changes relative to vehicle control ([2]; HeLa, protein PSMG1) | fold changes relative to vehicle control ([3]; protein HSPB1, HeLa) | fold changes relative to vehicle control [4, 14] | fold changes relative to vehicle control [5, 15] | fold changes relative to vehicle control ([6]; protein HSPA5, HeLa) | fold changes relative to vehicle control ([7]; HeLa, protein SEC13) | fold changes relative to vehicle control ([8]; HeLa, protein PRKDC) | fold changes relative to vehicle control ([9]; protein KARS, HeLa) | fold changes relative to vehicle control ([10]; HeLa, protein MON2) | also measured |
| --- | --- | --- | --- | --- | --- | --- | --- | --- | --- | --- | --- | --- | --- | --- | --- | --- | --- | --- | --- | --- | --- |
| Nc1nc2c(c(=O)[nH]1)N(C=O)C(CNc1ccc(C(=O)N[C@@H](CCC(=O)O)C(=O)O)cc1)CN2 (some centres unmarked) [LEU, leucovorin] | 0.9 | 1.01 | 0.82 | 0.99 | 1.06 | 1.02 | 1.05 | 0.91 | 1.04 | 0.89 | – | – | – | – | – | – | – | – | – | – | fold changes relative to vehicle control [1, 12]: 0.84 |
| Nc1nc2[nH]cc(CCc3ccc(C(=O)N[C@@H](CCC(=O)O)C(=O)O)cc3)c2c(=O)[nH]1 [PTX, pemetrexed] | – | – | – | – | – | – | – | – | – | – | – | – | – | – | – | – | – | – | – | – | fold changes relative to vehicle control [1]: 0.89; fold changes relative to vehicle control [2]: 0.81; fold changes relative to vehicle control [3]: 1; fold changes relative to vehicle control [4]: 0.97; fold changes relative to vehicle control [5]: 0.97; fold changes relative to vehicle control [6]: 1.03; fold changes relative to vehicle control [7]: 0.92; fold changes relative to vehicle control [8]: 1.06; fold changes relative to vehicle control [9]: 0.96; fold changes relative to vehicle control [10]: 1.05; fold changes relative to vehicle control [11]: 0.88 |
| CCCCCCOc1ccc(Cc2cnc(N)nc2N)cc1 [compound 1] | – | – | – | – | – | – | – | – | – | – | 0.9 | 0.9 | 1.09 | 1.18 fold | 1.33 fold | 0.96 | 0.93 | 1.01 | 0.74 | 1.11 | fold changes relative to vehicle control ([11]; captured protein IPO4, HeLa): 0.83 |
| CCCCCCOc1cccc(Cc2cnc(N)nc2N)c1 [compound 2] | – | – | – | – | – | – | – | – | – | – | 1.19 | 0.91 | 1.38 | 3.52 fold | 2.23 fold | 1.12 | 0.86 | 0.89 | 1.12 | 1.08 | fold changes relative to vehicle control ([11]; captured protein IPO4, HeLa): 1.01 |
| Nc1nc2cccc(-c3ccccc3)c2n1Cc1ccc(Cl)c(Cl)c1 [compound 3] | – | – | – | – | – | – | – | – | – | – | 1.12 | 1.03 | 0.88 | 0.68 fold | 0.91 fold | 0.99 | 0.95 | 1.2 | 1.13 | 1.18 | fold changes relative to vehicle control ([11]; captured protein IPO4, HeLa): 0.97 |
| NCCOCCOCC(=O)Nc1nc2ncc(CNc3ccc(C(=O)NC(CCC(=O)O)C(=O)O)cc3)nc2c(=O)[nH]1 (centres unmarked) [compound 6] | 0.76 | 1.07 | 0.89 | 1.26 | 1 | 0.86 | 1.17 | 1.04 | 1.17 | 1.04 | – | – | – | – | – | – | – | – | – | – | fold changes relative to vehicle control [1]: 1.02 |
| NCCCNc1ccc(C(=O)NC(CCC(=O)O)C(=O)O)cc1 (centres unmarked) [compound 7] | 0.98 | 0.94 | 0.72 | 0.9 | 1 | 0.98 | 1.16 | 1.07 | 1.25 | 0.94 | – | – | – | – | – | – | – | – | – | – | fold changes relative to vehicle control [1, 12]: 0.98 |
